Experimental data taken from patent US7521395B2, “Synergistically acting herbicidal mixtures” (BASF Aktiengesellschaft, priority 2002, dated 2009).

Columns and labels:
Assay in all cases: Herbicidal action, post-emergence treatment, field trial
Format in all cases: in vivo
Conditions in all cases: application rate 1250 g/ha ai, scale 0 = no damage, 100 = complete destruction
Anoda cristata = tested on: Anoda cristata
Excerpt: (§1) The mixtures according to the invention were applied pre- or post-emergence (foliar treatment). The herbicidal compounds of component B and of component C were applied in the formulation in which they are present as commercially available product.
(§2) The herbicidally active compounds of components A), B) and C) were applied in succession or jointly, in the latter case in some cases as a tank mix and in some cases as a readymix, in the form of emulsions, aqueous solutions or suspensions, the vehicle being water (300-400 l/ha). In the case of the field trials, application was effected with the aid of a mobile plot sprayer.
(§3) The test period extended over 3 to 8 weeks, and the stands were also observed at later points in time.
(§4) Damage by the herbicidal compositions was evaluated with reference to a scale of 0% to 100% in comparison with untreated control plots. 0 means no damage and 100 means complete destruction of the plants.
(§5) In these examples, the value E at which only an additive effect of the individual active ingredients is to be expected was calculated by the method of S. R. Colby (Calculating synergistic and antagonistic responses of herbicide combinations, Weeds 15, 20 pp (1967)).
(§6) This was done using the formula
(§7) [formula] where • X=Percentage of the herbicidal action of component X) at an application rate of x; • Y=Percentage of the herbicidal action of component Y) at an application rate of y; • E=expected herbicidal action of component X)+Y) at rates of application x+y (in %).
(§8) If the value observed exceeds the value E calculated in accordance with Colby's formula, then synergism is present.

Sorghum halepense = tested on: Sorghum halepense
Excerpt: as §1, §2, §3, §4, §5, §6, §7, §8

Tagetes minuta = tested on: Tagetes minuta
Excerpt: as §1, §2, §3, §4, §5, §6, §7, §8

CCNc1nc(Cl)nc(NC(C)C)n1 [atrazine]
Anoda cristata Damage [%] (Anoda cristata): 70%
Sorghum halepense Damage [%] (Sorghum halepense): 10%
Tagetes minuta Damage [%] (Tagetes minuta): 50%
